# Measured values taken from article PMC7136958, “Targeting the pregnane X receptor using microbial metabolite mimicry” (EMBO Molecular Medicine, 2020).
# Where “and” joins values, the source holds several entries; their conditions need not be identical. Equal entries are not always repeated. Where two headings read alike, the source gives them in different places.
# Key:
# hPXR-LBD (PXR.1) = biological target: T1, hPXR-LBD (PXR.1) (Homo sapiens, UniProt O75469); test: Isothermal titration calorimetry with His-tagged hPXR-LBD; assay type: binding
# T1 construct: made in house; host or cells: E. coli BL21-Gold
# T1 sequence (O75469 146-433 limits assumed): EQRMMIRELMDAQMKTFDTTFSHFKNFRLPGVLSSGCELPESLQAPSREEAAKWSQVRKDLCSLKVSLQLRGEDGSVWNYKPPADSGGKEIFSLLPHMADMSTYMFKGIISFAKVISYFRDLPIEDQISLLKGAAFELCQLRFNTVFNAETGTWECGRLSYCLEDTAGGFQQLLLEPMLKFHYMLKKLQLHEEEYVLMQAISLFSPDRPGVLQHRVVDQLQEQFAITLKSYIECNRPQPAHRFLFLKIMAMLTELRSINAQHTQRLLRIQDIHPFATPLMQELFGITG
# Method: The cloning, expression, and purification of His‐tagged PXR‐LBD were performed as previously published (Wallace et al, 2013) with the following modifications: For protein expression, Luria–Bertani (LB) media were inoculated with a saturated culture of BL21‐Gold cells transformed with HIS‐LIC plasmid containing the PXR‐LBD construct. The mixture was allowed to shake at 37°C until the cells reached an OD600 ~ 0.6, and then, the temperature was reduced to 18°C, at which time IPTG was added (final concentration of 0.1 mM) to induce protein expression. For purification, the His‐tag was not removed, and the uncleaved protein was loaded onto the gel filtration column with buffer containing HEPES (4‐(2‐hydroxyethyl)‐1‐piperazineethanesulfonic acid) (25 mM, pH 7.5) and NaCl (150 mM).
# Isothermal titration calorimetry (ITC) was carried out using a VP‐ITC microcalorimeter from MicroCal⁄Malvern Instruments (Northampton, MA, USA). […] In all the experiments, the ligand solution was injected in 10 μl aliquots into the calorimetric cell containing PXR‐LBD (ligand‐binding domain) at a concentration of 3–6 μM. […] The experiments were carried out at 37°C. The heat evolved upon each injection of the ligands was obtained from the integral of the calorimetric signal. The heat associated with binding to PXR‐LBD in the cell was obtained by subtracting the heat of dilution from the heat of reaction.
# [1] = tested on: CYP1A1, CYP3A4, MDR1 mRNA in LS180 cells; test: qRT-PCR of CYP1A1, CYP3A4, MDR1 mRNA in LS180 cells with or without (mock) transfected PXR; conditions: normalised to GAPDH, fold to UT control
# Method: (§1) Cells or primary human hepatocytes from four different donors (HEP200529, HEP220932, HEP200533, and HEP200538) were incubated for 24 h with test compounds; the vehicle was DMSO (0.1% v/v). Total RNA was isolated using TRI Reagent® (Molecular Research Center, Ohio, USA). cDNA was synthesized from 1,000 ng of total RNA using M‐MuLV Reverse Transcriptase (New England Biolabs, Ipswich, Massachusetts, USA) at 42°C for 60 min in the presence of random hexamers (New England Biolabs). Quantitative reverse transcriptase–polymerase chain reaction (qRT–PCR) was performed using LightCycler® 480 Probes Master on a LightCycler® 480 II apparatus (Roche Diagnostic Corporation).
# (§2) The following protocol was used: An activation step at 95°C for 10 min was followed by 45 cycles of PCR (denaturation at 95°C for 10 s; annealing with elongation at 60°C for 30 s). The measurements were performed in triplicate. Gene expression was normalized per GAPDH as a housekeeping gene. […] Data are expressed as fold induction ± SD over the vehicle‐treated cells. The bar graph depicts one representative experiment of a series of experiments performed in three consecutive passages of cells. Differences were tested using one‐way ANOVA with Dunnett's post hoc test, and P < 0.05 was considered significant.
# [2] = tested on: CYP1A1, CYP3A4, MDR1 mRNA in primary human hepatocytes; test: qRT-PCR of CYP1A1, CYP3A4, MDR1 mRNA in primary human hepatocytes (four donors); conditions: for CYP1A1 (1A1) mRNA, fold to C: primary human hepatocytes, fold vs untreated (UT)
# Method: as §1, §2
# [3] = tested on: CYP1A1, CYP3A4, MDR1 mRNA in HepaRG cells; conditions: for 1A1 mRNA fold to C: normalised to GAPDH, fold vs UT
# Method: Caco‐2 cells were purchased from ATCC, and authenticity was validated by multiplexed STR DNA (short tandem repeat deoxyribonucleic acid) profiling performed by Genetica. […] Cells were maintained at 37°C and 5% CO2 in a humidified incubator. […] Three HepaRG™‐derived cell lines, including 5F Clone control cells, and cells with targeted functional PXR and AhR gene knockouts, PXR‐KO and AhR‐KO, respectively, were purchased from Sigma (Czech Republic). Cells were handled according to the manufacturer's protocol. Human hepatocytes were purchased from Biopredic International (France) and Triangle Research Labs, LLC, Lonza (USA). Cultures were maintained in serum‐free medium at 37°C and 5% CO2 in a humidified incubator.
# The measurements were performed in triplicate.
# AhR = biological target: T2, AhR (Homo sapiens, UniProt P35869); test: AhR reporter assay, HepG2 cells stably expressing pCYP1A1 luciferase (AZ-AHR); assay type: cell-based; conditions: human; AZ-AHR cells, positive control, fold vs UT, concentration not given
# T2 construct: endogenous in cells; host or cells: AZ-AHR (HepG2)
# T2 sequence (P35869 11-848): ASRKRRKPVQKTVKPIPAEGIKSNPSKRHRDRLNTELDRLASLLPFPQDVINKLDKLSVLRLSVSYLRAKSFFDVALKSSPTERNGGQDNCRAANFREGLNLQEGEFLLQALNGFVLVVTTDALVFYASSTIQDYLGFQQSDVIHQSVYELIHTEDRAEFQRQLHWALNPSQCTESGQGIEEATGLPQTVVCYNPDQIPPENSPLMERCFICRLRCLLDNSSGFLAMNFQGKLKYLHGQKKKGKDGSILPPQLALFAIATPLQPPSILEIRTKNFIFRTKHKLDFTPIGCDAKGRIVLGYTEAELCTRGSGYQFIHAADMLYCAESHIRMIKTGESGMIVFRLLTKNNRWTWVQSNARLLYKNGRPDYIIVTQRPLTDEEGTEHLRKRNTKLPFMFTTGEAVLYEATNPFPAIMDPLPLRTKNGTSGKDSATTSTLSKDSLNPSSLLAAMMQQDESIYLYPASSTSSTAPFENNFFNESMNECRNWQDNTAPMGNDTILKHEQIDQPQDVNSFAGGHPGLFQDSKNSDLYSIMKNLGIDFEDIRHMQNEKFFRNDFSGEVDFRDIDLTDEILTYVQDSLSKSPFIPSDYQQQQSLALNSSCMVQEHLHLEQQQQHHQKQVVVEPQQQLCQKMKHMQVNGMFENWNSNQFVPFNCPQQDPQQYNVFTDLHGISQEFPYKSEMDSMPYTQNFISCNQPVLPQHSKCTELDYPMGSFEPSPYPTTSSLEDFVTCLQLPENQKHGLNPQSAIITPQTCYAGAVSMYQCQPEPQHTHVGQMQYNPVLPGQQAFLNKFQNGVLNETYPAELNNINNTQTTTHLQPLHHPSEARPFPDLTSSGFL
# Method: Incubations were performed in four technical replicates.
# NF-κB = test: TNF-α-induced NF-κB reporter assay in LS174T PXR-KO cells; conditions: LS174T PXR-KO, EXP3; 10 μM + TNFα 5 ng/ml; TNFa 5 ng/ml = 100; listed as RIF
# Source text: In early passage PXR‐KO cells, we used PXR and NF‐κB reporter‐co‐transfected and NF‐κB reporter‐transfected PXR‐KO cell line.
# CRISPR/Cas9‐mediated knockout cells were generated by Synthego Corporation (Redwood City, CA, USA). Briefly, cells were first tested negative for mycoplasma. Guide RNA was selected for high activity, specificity, and activity to create premature stop codons through frameshift mutations in the coding region via insertions and/or deletions (Indels) within exon 2 of the gene encoding human PXR (NR1I2 transcript ID ENST00000337940). […] To generate these cells, ribonucleoproteins (RNPs) containing the Cas9 protein and synthetic chemically modified sgRNA (Synthego) were electroporated into the cells using Synthego's optimized protocol. Editing efficiency is assessed upon recovery, 48 h post‐electroporation. Genomic DNA is extracted from a portion of the cells, PCR‐amplified, and sequenced using Sanger sequencing. The resulting chromatograms are processed using Synthego Inference of CRISPR Edits software (ice.synthego.com).
structure (smiles),measurement,setting,value
"O=C(O)CCc1c[nH]c2ccccc12 [IPA, indole‐3‐propionic acid, reference compound]",thermal signature of interaction with hPXR-LBD,hPXR-LBD (PXR.1),did not induce a thermal signature
"Clc1cc2c(cc1Cl)Oc1cc(Cl)c(Cl)cc1O2 [TCDD, 2,3,7,8‐tetrachlorodibenzo‐p‐dioxin, reference compound]",CYP1A1 mRNA fold to C,[1]; PXR-transfected LS180 cells,1299.13
same,CYP1A1 mRNA fold to C,[1]; mock-transfected LS180 cells,2347.10
same,CYP1A1 mRNA induction,[2]; four donors,induced CYP1A1 mRNA in all cells
same,CYP1A1 mRNA fold to C,"[2]; primary human hepatocytes donor Hep200538, normalised to GAPDH, fold to UT control",10734.74
same,"CYP1A1 (1A1) mRNA, fold to C","[2]; donor Hep200529, normalised to GAPDH",394.35 fold
same,"CYP1A1 (1A1) mRNA, fold to C","[2]; donor Hep200533, normalised to GAPDH",1246.21 fold
same,"CYP1A1 (1A1) mRNA, fold to C","[2]; donor Hep220932, normalised to GAPDH",962.07 fold
same,1A1 mRNA fold to C,[3]; HepaRG AHR-KO,1.24 fold
same,1A1 mRNA fold to C,[3]; HepaRG CONTROL 5F Clone,151.69 fold
same,"CYP1A1 (1A1) mRNA, fold to C","[3]; HepaRG PXR-KO cells, qRT-PCR normalised to GAPDH, fold vs untreated (UT)",338.18 fold
same,CYP1A1 mRNA induction,"[3]; HepaRG control 5F clone, PXR-KO, AhR-KO",induces
same,fold induction at 24 h,AhR,485
"CO[C@H]1/C=C/O[C@@]2(C)Oc3c(C)c(O)c4c(O)c(c(/C=N/N5CCN(C)CC5)c(O)c4c3C2=O)NC(=O)/C(C)=C\C=C\[C@H](C)[C@H](O)[C@@H](C)[C@@H](O)[C@@H](C)[C@H](OC(C)=O)[C@@H]1C [Rifampicin, reference compound]",NFkB %max,NF-κB,94.8% and 94.84%
